Laboratory results taken from ChEMBL document CHEMBL3603787, “Antiproliferative and tumor inhibitory studies of 2,3 disubstituted 4-thiazolidinone derivatives” (Bioorg Med Chem Lett, 2015).
The source made the active and inactive calls. No cut-off for these calls is given here.

What was measured:
Mus musculus [1] = test: Toxicity in mouse EAC allografted mouse assessed as effect on morphology and cellular construction of organs at 25 mg/kg; assay type: organism-based; conditions: in vivo
REH [2] = test: Cell cycle arrest in human REH cells assessed as accumulation at sub-G1 phase after 48 hrs using propidium iodide staining; assay type: functional, cell-based
[3] = Antiproliferative activity against human HEK293T cells after 48 hrs by MTT assay; assay type: cell-based; conditions: HEK-293T
REH [4] = test: Antiproliferative activity against human REH cells after 48 hrs by MTT assay; assay type: functional, cell-based
REH [5] = test: Induction of apoptosis in human REH cells assessed as decrease in mitochondrial membrane potential using green fluorescence of JC-1 dye after 48 hrs; assay type: functional, cell-based
Ehrlich [6] = test: Antitumor activity against mouse EAC cells allografted in mouse assessed as reduction of tumor volume at 25 mg/kg measured up to 14 days; assay type: functional, organism-based
Mus musculus [7] = test: Toxicity in mouse EAC allografted mouse assessed as effect on organs function at 25 mg/kg; assay type: organism-based; conditions: in vivo
[8] = Antiproliferative activity against human NALM6 cells after 48 hrs by MTT assay; assay type: functional, cell-based; conditions: NALM-6, 48 h
Ehrlich [9] = test: Antitumor activity against mouse EAC cells allografted in mouse assessed as necrosis and innumerable number of apoptotic cells at 25 mg/kg measured up to 14 days; assay type: functional, organism-based

Compound	IC50 (REH [4]) [µM]	IC50 [8] [µM]	further results
CN(C)c1ccc(C2SCC(=O)N2c2ccc(Br)cc2)cc1 (configuration not stated)	11.9	13.2	Activity (Mus musculus [1]): Non-toxic; Activity (REH [2]): Dose-dependent effect; IC50 [3]: > 80 µM; Activity (REH [5]): Dose-dependent effect; Activity (Ehrlich [6]): Active; Activity (Mus musculus [7]): Non-toxic; Activity (Ehrlich [9]): Active
COc1ccc(N2C(=O)CSC2c2ccccc2[N+](=O)[O-])cc1 (configuration not stated)	> 100	93.4	
COc1cccc(N2C(=O)CSC2c2ccc(F)cc2)c1 (configuration not stated)	> 100	49.8	
O=C1CSC2(CCCC2)N1c1ncccn1	> 100	> 100	
COc1ccc(N2C(=O)CSC2c2cccnc2)cc1OC (configuration not stated)	> 100	> 100	
COc1ccc(N2C(=O)CSC2c2ccc(O)cc2)cc1OC (configuration not stated)	69.4	> 100	
CC(C)(C)OC(=O)N1CCC(C2SCC(=O)N2c2ccc(N3CCN(C(=O)OC(C)(C)C)CC3)cn2)CC1 (configuration not stated)	> 100	82.9	
O=C1CSC2(CCCCC2)N1c1ccc(OC(F)F)cc1	41.4	> 100	
Cc1ccccc1N1C(=O)CSC1c1ccc(C(F)(F)F)cc1 (configuration not stated)	29.6	42.6	
CC1(c2ccccc2)SCC(=O)N1c1cc(Cl)cc(Cl)c1 (configuration not stated)	> 100	> 100	
